Key:
[1] = biological target: T1, c-kit (Homo sapiens, UniProt P10721); test: KINASESEEKER competition binding assay, c-kit; details: minimum 8-point curve, duplicate
T1 construct: purchased Luceome Biotechnologies, LLC
Description: Kinase assays were performed using KINASESEEKER™ (Luceome Biotechnologies, LLC; Tucson, AZ). KINASESEEKER™ is a homogeneous competition binding assay in which the displacement of an active site-dependent probe by an inhibitor is measured by a change in luminescence signal. Luminescence readout translates into a highly sensitive and robust assay with low background and minimal interference from test compounds. See J. Am. Chem. Soc., 2010, 132, 11727-11735.
Stock solutions of compounds were serially diluted in DMSO to make assay stocks. Prior to initiating IC50 determination, the test compounds were evaluated for false positives against split-luciferase. The compounds were screened against kinases at a minimum of 8 different concentrations in duplicate. For kinase assays, a 24 μL aliquot of lysate containing Cfluc-kinase and Fos-Nfluc was incubated for 2 hours with either 1 μL of DMSO (for no-inhibitor control) or compound solution in DMSO in presence of a kinase specific probe. 80 μL of luciferin assay reagent was added to each solution and luminescence was immediately measured on a luminometer.
The % Inhibition and % Activity Remaining was calculated using the following equation: […]
The % Activity Remaining was plotted against compound concentration and the IC50 was determined for each compound using a minimum 8-point curve.

[2] = tested on: LUVA cells; test: MC maturation in LUVA cells by flow cytometry (CD117, FceR1); assay type: cell-based, human; details: 100 ng/mL SCF overnight, then 10 nM, 100 nM, 1 μM compound for 48 hours, vs DMSO
Description: A human mast cell (MC) line that arose spontaneously from a culture of non-transformed hematopoietic progenitor cells is described in J Allergy Clin Immunol, 2011, 127:815-22, which is incorporated herein by reference. The cells, termed LUVA cells, are an immortalized human MC line that can be maintained without stem cell factor (SCF) and that display high levels of normally signaling c-kit and FceR1.
The LUVA cells (Kerafast, EG1701-FP) were cultured in StemPro-34 serum-free media with 10% nutrient supplement, 1% L-glutamine, and 1% pen/strep and grown under normal atmospheric conditions (5% CO2). The cells were plated and treated with 100 ng/mL of SCF overnight and then treated with DMSO or an ascending dose of either BK40143, BK40196, or BK40197 for 48 hours, before collection and incubation with two flow-conjugated antibodies (PE anti-mouse CD117 (c-kit) and APC/fire 750 anti-mouse FceR1a) and subsequent analysis via flow cytometry. Group differences were compared using unpaired Student's t-tests.

[3] = biological target: T2, KIT (D816V) (Homo sapiens, UniProt P10721, D816V); test: KINOMEscan competition binding screen, KIT (D816V); details: for remaining binding at 10 µM: read-out: % Ctrl @ 10 μM
T2 construct: purchased Eurofins DiscoverX Corporation
Description: (§1) The KINOMEscan™ screening platform (Eurofins DiscoverX Corporation, San Diego, USA) was performed using an active site-directed competition binding assay to quantitatively measure interactions between BK40143, BK40197, BK40195, and BK40196 and more than 450 human kinases and disease relevant mutant variants. […] Screening “hits” were identified by measuring the amount of kinase captured in test (BK40143, BK40197, BK40195, and BK40196) versus control samples by using a quantitative and ultra-sensitive qPCR method that detects the associated DNA label. BK40143, BK40197, BK40195, and BK40196 were screened at 10 μM concentration, and results for primary screen binding interactions were reported as ‘% Ctrl’ (POC), where lower numbers indicate stronger hits and calculated as follows:
(§2) [formula] • test compound=BK40143 or BK40197 or BK40195 or BK40196 • negative control=DMSO (100% Ctrl) • positive control=control compound (0% Ctrl)
(§3) Based on screening data of profiled compounds, a proportional relationship between primary screening results and corresponding compound/target affinities can be described as binding constants (Kd values) for the indicated ranges of percent of control (PoC) values, with tighter binding (higher affinity) interactions associated with lower PoC values, and weaker binding (lower affinity) associated with higher PoC values. Briefly, kinase-tagged T7 phage strains were grown in parallel in 24-well blocks in an E. coli host derived from the BL21 strain. E. coli were grown to log-phase and infected with T7 phage from a frozen stock (multiplicity of infection=0.4) and incubated with shaking at 32° C. until lysis (90-150 minutes). The lysates were centrifuged (6,000×g) and filtered ([…]) to remove cell debris. The remaining kinases were produced in HEK-293 cells and subsequently tagged with DNA for qPCR detection. Streptavidin-coated magnetic beads were treated with biotinylated small molecule ligands for 30 minutes at room temperature to generate affinity resins for kinase assays. The liganded beads were blocked with excess biotin and washed with blocking buffer (SeaBlock (Pierce), 1% BSA, 0.05% Tween 20, 1 mM DTT) to remove unbound ligand and to reduce non-specific phage binding. Binding reactions were assembled by combining kinases, liganded affinity beads, and test compounds in 1× binding buffer (20% SeaBlock, 0.17×PBS, 0.05% Tween 20, 6 mM DTT). Test compounds were prepared as 100× stocks in 100% DMSO and directly diluted into the assay. All reactions were performed in polypropylene 384-well plates in a final volume of 0.02 ml. The assay plates were incubated at room temperature with shaking for 1 hour and the affinity beads were washed with wash buffer (1×PBS, 0.05% Tween 20). The beads were then re-suspended in elution buffer (1×PBS, 0.05% Tween 20, 0.5 μM non-biotinylated affinity ligand) and incubated at room temperature with shaking for 30 minutes. The kinase concentration in the eluates was measured by qPCR.

[4] = biological target: T3, SRC (Homo sapiens, UniProt P12931); test: KINOMEscan competition binding screen, SRC; details: for remaining binding at 10 µM: read-out: % Ctrl @ 10 μM
T3 construct: purchased Eurofins DiscoverX Corporation
Description: as §1, §2, §3

[5] = biological target: T4, KIT autoinhibited (Homo sapiens, UniProt P10721); test: KINOMEscan competition binding screen, KIT autoinhibited; details: for remaining binding at 10 µM: read-out: % Ctrl @ 10 μM
T4 construct: purchased Eurofins DiscoverX Corporation
Description: as §1, §2, §3

[6] = biological target: T5, KIT (A829P) (Homo sapiens, UniProt P10721, A829P); test: KINOMEscan competition binding screen, KIT (A829P); details: for remaining binding at 10 µM: read-out: % Ctrl @ 10 μM
T5 construct: purchased Eurofins DiscoverX Corporation
Description: as §1, §2, §3

[7] = biological target: T6, KIT (L576P) (Homo sapiens, UniProt P10721, L576P); test: KINOMEscan competition binding screen, KIT (L576P); details: for remaining binding at 10 µM: read-out: % Ctrl @ 10 μM
T6 construct: purchased Eurofins DiscoverX Corporation
Description: as §1, §2, §3

T5 sequence (P10721 26-976 A829P): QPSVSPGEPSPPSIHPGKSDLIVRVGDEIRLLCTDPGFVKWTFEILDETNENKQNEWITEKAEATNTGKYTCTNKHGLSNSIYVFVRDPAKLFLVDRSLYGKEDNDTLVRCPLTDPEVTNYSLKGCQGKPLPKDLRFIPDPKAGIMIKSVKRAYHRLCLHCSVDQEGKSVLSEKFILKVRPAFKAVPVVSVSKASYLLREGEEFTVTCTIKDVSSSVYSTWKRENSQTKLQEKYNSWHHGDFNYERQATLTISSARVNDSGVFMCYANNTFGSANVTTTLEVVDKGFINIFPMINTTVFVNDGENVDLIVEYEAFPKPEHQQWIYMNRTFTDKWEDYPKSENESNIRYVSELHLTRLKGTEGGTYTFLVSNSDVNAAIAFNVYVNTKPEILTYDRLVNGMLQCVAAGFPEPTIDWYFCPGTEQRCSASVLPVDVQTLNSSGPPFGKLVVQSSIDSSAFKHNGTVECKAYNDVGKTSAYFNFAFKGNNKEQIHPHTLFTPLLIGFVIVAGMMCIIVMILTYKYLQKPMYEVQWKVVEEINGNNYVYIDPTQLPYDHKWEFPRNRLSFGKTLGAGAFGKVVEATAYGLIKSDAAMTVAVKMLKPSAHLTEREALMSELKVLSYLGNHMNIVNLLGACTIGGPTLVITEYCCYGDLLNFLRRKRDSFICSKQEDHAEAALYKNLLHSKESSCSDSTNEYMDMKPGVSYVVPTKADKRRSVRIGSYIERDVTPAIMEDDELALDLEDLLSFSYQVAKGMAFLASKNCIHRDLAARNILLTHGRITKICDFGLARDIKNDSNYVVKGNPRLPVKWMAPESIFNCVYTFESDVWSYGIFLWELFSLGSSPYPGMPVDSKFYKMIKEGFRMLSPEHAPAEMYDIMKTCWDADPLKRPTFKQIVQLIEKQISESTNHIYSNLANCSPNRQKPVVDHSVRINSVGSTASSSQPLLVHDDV
T4 sequence (P10721 544-976 limits assumed): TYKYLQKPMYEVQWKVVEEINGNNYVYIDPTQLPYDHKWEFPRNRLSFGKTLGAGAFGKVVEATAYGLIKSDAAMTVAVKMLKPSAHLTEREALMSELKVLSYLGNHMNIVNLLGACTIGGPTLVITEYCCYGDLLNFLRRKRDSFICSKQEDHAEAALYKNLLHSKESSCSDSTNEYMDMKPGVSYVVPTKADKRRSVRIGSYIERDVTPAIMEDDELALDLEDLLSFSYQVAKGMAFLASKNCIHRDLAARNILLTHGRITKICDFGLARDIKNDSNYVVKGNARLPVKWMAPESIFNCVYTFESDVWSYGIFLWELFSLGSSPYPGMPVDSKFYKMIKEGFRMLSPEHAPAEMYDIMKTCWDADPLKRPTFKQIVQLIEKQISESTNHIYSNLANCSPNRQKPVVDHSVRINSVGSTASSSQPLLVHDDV
T3 sequence (P12931 whole entry): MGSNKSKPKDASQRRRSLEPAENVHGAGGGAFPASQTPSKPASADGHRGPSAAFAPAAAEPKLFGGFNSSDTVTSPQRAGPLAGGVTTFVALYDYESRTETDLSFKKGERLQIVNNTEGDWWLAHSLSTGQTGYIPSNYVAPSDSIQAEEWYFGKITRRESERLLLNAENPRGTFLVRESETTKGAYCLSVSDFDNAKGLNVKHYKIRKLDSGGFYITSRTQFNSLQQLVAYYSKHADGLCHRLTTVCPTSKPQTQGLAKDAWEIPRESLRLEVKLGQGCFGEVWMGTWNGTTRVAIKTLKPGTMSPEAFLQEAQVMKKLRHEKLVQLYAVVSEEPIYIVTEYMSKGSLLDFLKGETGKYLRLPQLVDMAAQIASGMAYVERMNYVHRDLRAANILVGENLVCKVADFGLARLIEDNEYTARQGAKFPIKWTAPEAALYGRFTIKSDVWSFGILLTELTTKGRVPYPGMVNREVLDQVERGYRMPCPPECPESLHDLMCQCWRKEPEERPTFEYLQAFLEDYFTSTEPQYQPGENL
T1 sequence (P10721 26-976): as the sequence (P10721 26-976 A829P) above, with P804A counted along it
T2 sequence (P10721 26-976 D816V): as the sequence (P10721 26-976 A829P) above, with D791V, P804A counted along it
T6 sequence (P10721 26-976 L576P): as the sequence (P10721 26-976 A829P) above, with L551P, P804A counted along it

IC50 [1] [nM] | inhibition at 10 µM [3] [%] | remaining binding at 10 µM [3] [%] | inhibition at 10 µM [4] [%] | remaining binding at 10 µM [4] [%] | inhibition at 10 µM [5] [%] | remaining binding at 10 µM [5] [%] | inhibition at 10 µM [6] [%] | remaining binding at 10 µM [6] [%] | inhibition at 10 µM [7] [%] | remaining binding at 10 µM [7] [%] | SMILES | number of immature MCs (CD117 only) compared to mature MCs (CD117 and FceR1) [2]
750 ± 110 | 65 | 35 | 94.7 | 5.3 | 31 | 69 | 48 | 52 | 96.5 | 3.5 | Cc1cccc(-c2cc3nccc(Nc4ccccc4)c3s2)c1 [BK40143] | significantly increased
288 ± 23 | 98.3 | 1.7 | 99.7 | 0.35 | 78 | 22 | 93.7 | 6.3 | 91.9 | 8.1 | COc1cccc(Nc2ccnc3cc(-c4cccc(C)c4)sc23)c1 [BK40195] | 
276 ± 35 | 99.8 | 0.2 | 99.9 | 0.1 | 44 | 56 | 79 | 21 | 99.2 | 0.8 | Cc1cccc(-c2cc3nccc(Nc4cccc(O)c4)c3s2)c1 [BK40196] | significantly increased

SMILES | IC50 [1] [nM] | inhibition at 10 µM [3] [%] | remaining binding at 10 µM [3] [%] | inhibition at 10 µM [4] [%] | remaining binding at 10 µM [4] [%] | inhibition at 10 µM [5] [%] | remaining binding at 10 µM [5] [%] | inhibition at 10 µM [6] [%] | remaining binding at 10 µM [6] [%] | inhibition at 10 µM [7] [%] | remaining binding at 10 µM [7] [%] | number of immature MCs (CD117 only) compared to mature MCs (CD117 and FceR1) [2]
Cc1cccc(-c2cc3nccc(N4CCOCC4)c3s2)c1 [BK40197] |  | 33 | 67 | 19 | 81 | 48 | 52 | 0 | 100 | 98.2 | 1.8 | significantly increased

Source: patent US20240423995A1, “C-KIT INHIBITORS AND USES FOR TREATING AND PREVENTING INFLAMMATORY CONDITIONS” (GEORGETOWN UNIVERSITY, priority 2023, published 2024)
